{"source": "patent US20090325920A1", "about": "“METHODS FOR THE TREATMENT OF A TRAUMATIC CENTRAL NERVOUS SYSTEM INJURY” (priority 2005, published 2009)", "key": {"clinical": {"assay": "clinical", "settings": "human, in vivo", "excerpt": "This study was approved by the Institutional Review Board of Emory University, the Drug Safety Monitoring Board (NINDS) and the FDA (IND #58,986). After obtaining informed consent, thirty-six patients meeting the inclusion criteria outlined as follows were studied. […] Inclusion criteria required that each patient be ≧18 years old, have a closed head injury arising from blunt trauma, have a moderate to severe brain injury (Index Glasgow Coma Score (GCS) 4-12) and arrive in the Emergency Department and obtain informed consent (from next-of-kin) in less than 11 hours post injury.\nAliquots of each solution were assayed for final concentration and sterility. […] Each kit contained six vials. […] The placebo kits were also formulated with 95% ethanol. Because of the alcohol concentration, doses of study drug were mixed with Intralipid® immediately prior to infusion. Each infusion dose was administered over 12 hours and repeated every 12 hours for a total of 72 hours. […] The dosing worksheet was also used to calculate the volume of study medication to be diluted in Intralipid® for each of the remaining infusion reservoirs at a standard rate of 10 cc/hr.\nNine (5 ml) samples were obtained at the following times during the infusion: pre-infusion (0), 4, 6, 12, 24, 36, 48, 60, and 72 hours. An additional five samples were obtained following cessation of infusion at: 0.5, 1, 2, 4 and 8 hours. Samples were allowed to clot, and then centrifuged After that, the serum was removed and stored at −70° C. until analyzed.\nThe primary pharmacokinetic parameter, CL, was estimated as the ratio of the dose to area under the serum concentration-time curve (AUC). AUC's were calculated using the linear trapezoidal rule (Veng-Pedersen (1989) Clin Pharmacokinet, 17(6):424-40). The elimination phase rate constant, ke, was calculated from the serum concentration-time data following the termination of the infusion using iterative non-linear regression (WinNonlin®, Pharsight Corporation, Mountain View, Calif.). Volume of Distribution was estimated as the ratio of CL and ke. Css was estimated as the ratio of Dose and CL. Actual Css was defined as the concentration achieved when the slope of the serum concentration-time curve for three or more consecutive samples was not different from zero.\nPredicted Css concentrations were calculated as the ratio of the infusion rate/clearance. Differences between predicted and measured Css were made using a ‘t’ test for repeated measures. A Bland-Altman analysis was conducted to assess the magnitude of any bias associated with this approach (Bland and Altman (1986) Lancet, 1(8476):307-10). Pharmacokinetic parameter comparisons between male and female were accomplished using a ‘t’ test for independent means. A p value of less than 0.05 was considered the minimum level for rejection of the null hypothesis."}, "[1]": {"assay": "Stability of progesterone solutions (isocratic HPLC-UV)", "format": "physicochemical", "excerpt": "For all stability testing, the method of […], et al. was used with minor modifications ([…], et al. (1999) Journal of Pharmaceutical & Biomedical Analysis, 19(5):803-8). The method was originally validated to assess the stability of medroxyprogesterone acetate and estradiol valerate tablets. It is an isocratic HPLC-UV method utilizing external standardization. A 5 micron, 4.6×250mm BDS-Hypersil C-18 column (Keystone Scientific) was used and the analyses were completed on an Agilent 100 model HPLC system with photodiode array detector. The mobile phase consisted of 40% 0.07M ammonium acetate buffer, pH 7.2 and 60% acetonitrile. Detection was at […]. […] Reproducibility as assessed by 10 injections of the same preparation on multiple different days was always less that 10%. […] A five point standard curve was run with each analysis."}, "[2]": {"assay": "Solubility of progesterone in carriers", "format": "physicochemical"}, "[3]": {"test_system": "patients having moderate to severe TBI", "assay": "Pilot phase II randomized double-blind trial of progesterone for traumatic brain injury, preliminary evaluation (Example 2)", "format": "in vivo, human", "description": "The administration protocol was carried out was described above in Example 1.\nTo determine if a therapeutic response was achieved, the following endpoints were monitored:\nICP reduction determined by calculating “therapeutic intensity level” (ICP-TIL);\nduration of coma (injury to awaking);\nmortality one-month post injury;\nneurological outcome 1 month and 1 year post-injury, as determined by Glasgow outcome scale (GOS), Disability rating scale (DRS) and Galveston orientation and amnesia test (GOAT).\nThe administration protocol and pharmaceutical composition administered are described in detail in Example 1. Follow up regarding condition occurred at 30 days and 1 year."}, "[4]": {"settings": "number of subjects, treatment A (76 of 99)"}}, "data": [{"molecule": "CC(=O)[C@H]1CC[C@H]2[C@@H]3CCC4=CC(=O)CC[C@]4(C)[C@H]3CC[C@]12C", "note": "[progesterone, pregn-4-ene-3,20-dione]", "values": [{"measurement": "Css actually measured", "setting": "clinical; both", "value": "337 ± 135", "unit": "ng/mL"}, {"measurement": "Css predicted by Ro/CL", "setting": "clinical; both", "value": "332 ± 121", "unit": "ng/mL"}, {"measurement": "clearance", "setting": "clinical; both, CL", "value": 28.8, "unit": "mL/min/kg"}, {"measurement": "half-life", "setting": "clinical; both, terminal half-life", "value": "1.78 ± 1", "unit": "h"}, {"measurement": "Css Measured", "setting": "clinical; female", "value": 316, "unit": "ng/mL"}, {"measurement": "clearance", "setting": "clinical; female, CL", "value": 31.3, "unit": "mL/min/kg"}, {"measurement": "Vd", "setting": "clinical; female, iv", "value": 1.33, "unit": "L/kg"}, {"measurement": "half-life", "setting": "clinical; female, t1/2", "value": "2.03 ± 1.08", "unit": "h"}, {"measurement": "clearance", "setting": "clinical; male, CL", "value": 27.7, "unit": "mL/min/kg"}, {"measurement": "Vd", "setting": "clinical; male, iv", "value": 1.62, "unit": "L/kg"}, {"measurement": "clearance", "setting": "clinical; male, iv", "value": 22.2, "unit": "mL/min/kg"}, {"measurement": "half-life", "setting": "clinical; male, t1/2", "value": "1.6 ± 0.95", "unit": "h"}, {"measurement": "stability of solution", "setting": "[1]; Intralipid solutions containing progesterone in 95% ethyl alcohol", "value": "≥ 24", "unit": "h"}, {"measurement": "stability of solution", "setting": "[1]; solution of progesterone in 95% ethyl alcohol, room temperature", "value": "up to 2 years"}, {"measurement": "solubility", "setting": "[2]", "value": "soluble only in alcohol"}, {"measurement": "amount dissolved into solution", "setting": "[2]; Intralipid 20%", "value": "up to 4 gm per 1 liter of intralipid"}, {"measurement": "mortality rate", "setting": "[3]; moderate to severe TBI, three days IV progesterone, preliminary", "value": 12.9, "unit": "%"}, {"measurement": "Brain death, frequency", "setting": "[3]; [4]", "value": 4}, {"measurement": "Medicinal death, frequency", "setting": "[3]; [4]", "value": 5}, {"measurement": "Not Dead, frequency", "setting": "[3]; [4]", "value": 67}, {"measurement": "proportion of subjects experiencing brain death versus group B", "setting": "[3]; p=0.0295 by Fisher's exact test", "value": "significantly lower proportion"}, {"measurement": "proportion of subjects experiencing medical death versus group B", "setting": "[3]; p=0.6622 by Fisher's exact", "value": "not statistically significant"}, {"measurement": "Medicinal death, percent", "setting": "[3]; percent of all 99 subjects", "value": 5.05, "unit": "%"}, {"measurement": "Not Dead, percent", "setting": "[3]; percent of all 99 subjects", "value": 67.68, "unit": "%"}, {"measurement": "reduction in brain deaths", "setting": "[3]; versus control subjects, preliminary", "value": 60, "unit": "%"}]}]}
